Measured values as given in PubChem BioAssay AID652222 (The Scripps Research Institute Molecular Screening Center, 2013).

target: Serine/threonine-protein phosphatase PP1-alpha catalytic subunit (Homo sapiens) (UniProt P62136); experiment: PP1 inhibitor potency with OMFP substrate, dose response, biochemical, fluorescence, set 1 (AID 652222); settings: purified PP1alpha, OMFP dephosphorylation
Sequence (P62136 whole entry, looked up): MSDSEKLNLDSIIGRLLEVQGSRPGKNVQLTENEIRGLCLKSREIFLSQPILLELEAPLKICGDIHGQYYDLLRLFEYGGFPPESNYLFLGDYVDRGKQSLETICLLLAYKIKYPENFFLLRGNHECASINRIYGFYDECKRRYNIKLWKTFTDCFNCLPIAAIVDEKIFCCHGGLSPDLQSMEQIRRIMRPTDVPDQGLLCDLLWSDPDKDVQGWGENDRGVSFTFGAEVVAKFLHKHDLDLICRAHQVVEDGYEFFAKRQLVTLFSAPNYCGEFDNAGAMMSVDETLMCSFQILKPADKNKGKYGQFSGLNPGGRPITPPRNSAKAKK

| SMILES | IC50 [µM] |
| --- | --- |
| Cc1cccc(C(c2ccc3cccnc3c2O)N2CCN(C)CC2)n1 (stereo not drawn) | 2.52 |
| CN1CCN(C(c2ccc(C(F)(F)F)cn2)c2ccc3cccnc3c2O)CC1 (stereo not drawn) | 0.836 |
| CC(C)(C)OC(=O)N1CCN(C(c2ccccn2)c2cc(Cl)c3cccnc3c2O)CC1 (stereo not drawn) | 1.37 |
| Cc1ccc(C(c2ccc3cccnc3c2O)N2CCN(C)CC2)nc1 (stereo not drawn) | 1.34 |
| Cc1ccnc(C(c2ccc3cccnc3c2O)N2CCN(C)CC2)c1 (stereo not drawn) | 1.8 |
| CN1CCN(C(c2ccc3cccnc3c2O)c2ncccc2C(F)(F)F)CC1 (stereo not drawn) | 1.12 |
| CN1CCC(NC(c2ccccn2)c2ccc3cccnc3c2O)CC1 (stereo not drawn) | 2.5 |
| Oc1c(C(c2ccccn2)N2CCN(c3ccccc3F)CC2)cc(Cl)c2cccnc12 (stereo not drawn) | 2.41 |

Continued by falling IC50, values first:

| IC50 [µM] | SMILES |
| --- | --- |
| 8.87 | COc1cccc(C(c2ccc3cccnc3c2O)N2CCN(C)CC2)n1 (stereo not drawn) |
| 2.69 | CN1CCN(C(c2ncccn2)c2ccc3cccnc3c2O)CC1 (stereo not drawn) |
| 1.69 | COc1ccc(C(c2ccc3cccnc3c2O)N2CCN(C)CC2)nc1 (stereo not drawn) |
| 1.48 | Cc1cccnc1C(c1ccc2cccnc2c1O)N1CCN(C)CC1 (stereo not drawn) |
| 1.45 | CC1CCN(C(c2ccccn2)c2cc(Cl)c3cccnc3c2O)CC1 (stereo not drawn) |
| 1.44 | Cc1ccc2ccc(C(c3ccccn3)N3CCN(C)CC3)c(O)c2n1 (stereo not drawn) |
| 1.41 | Oc1c(C(c2ccccn2)N2CCCC2)ccc2cccnc12 (stereo not drawn) |
| 1.36 | Oc1c(C(NC2CCCCC2)c2ccccn2)ccc2cccnc12 (stereo not drawn) |
| 1.26 | COc1ccnc(C(c2ccc3cccnc3c2O)N2CCN(C)CC2)c1 (stereo not drawn) |
| 1.23 | Oc1c(C(c2ccccn2)N2CCC(Cc3ccccc3)CC2)cc(Cl)c2cccnc12 (stereo not drawn) |
